According to PubChem BioAssay AID328 (DTP/NCI, 2004):
Where “and” joins values, the source holds several entries; their conditions need not be identical. Identical values can stand only once. Toxic doses and inconclusive results are not listed. The calls were made as follows: active = survival T/C of 150% or more; inactive = T/C below 125% in these data.

Tested on: BDF1 mice, P388 leukemia ip, median survival T/C
Assay: NCI In Vivo Anticancer Drug Screen. Data for tumor model P388 Leukemia (intraperitoneal) in B6D2F1 (BDF1) mice
Details: endpoint: median survival time, higher = longer survival
Summary of the method: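 Mice carrying the transplantable tumour receive compound or vehicle. Survival is followed in each arm, and the treated measure is divided by the vehicle measure.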

[1] = dose: 12.5 mg/kg/injection, schedule: Q01DX009 (ip), vehicle: saline with Tween-80
[2] = dose: 25.0 mg/kg/injection, schedule: Q01DX009 (ip), vehicle: saline with Tween-80
[3] = dose: 50.0 mg/kg/injection, schedule: Q01DX009 (ip), vehicle: saline with Tween-80
[4] = dose: 100.0 mg/kg/injection, schedule: Q01DX009 (ip), vehicle: saline with Tween-80
[5] = dose: 200.0 mg/kg/injection, schedule: Q01DX009 (ip), vehicle: saline with Tween-80
[6] = dose: 50.0 mg/kg/injection, schedule: Q04DX003 (ip), vehicle: saline with Tween-80
[7] = dose: 100.0 mg/kg/injection, schedule: Q04DX003 (ip), vehicle: saline with Tween-80
[8] = dose: 200.0 mg/kg/injection, schedule: Q04DX003 (ip), vehicle: saline with Tween-80
[9] = dose: 400.0 mg/kg/injection, schedule: Q04DX003 (ip), vehicle: saline with Tween-80
[10] = dose: 400.0 mg/kg/injection, schedule: Q01DX009 (ip), vehicle: saline with Tween-80
[11] = dose: 50.0 mg/kg/injection, schedule: Q01DX005 (ip), vehicle: saline with Tween-80
[12] = dose: 100.0 mg/kg/injection, schedule: Q01DX005 (ip), vehicle: saline with Tween-80
[13] = dose: 200.0 mg/kg/injection, schedule: Q01DX005 (ip), vehicle: saline with Tween-80

Measured: T/C

c1ccc(CSc2ncnc3nc[nH]c23)cc1
inactive: dose: 12.5 mg/kg/injection, schedule: Q01DX010 (ip), vehicle: saline 100 % of control | dose: 25.0 mg/kg/injection, schedule: Q01DX010 (ip), vehicle: saline 100 % of control | dose: 50.0 mg/kg/injection, schedule: Q01DX010 (ip), vehicle: saline 100 % of control | dose: 100.0 mg/kg/injection, schedule: Q01DX010 (ip), vehicle: saline 100 % of control

Cc1ccc(-c2cc(C)n(C)[n+]2C)cc1
inactive: [1] 108 % of control | [2] 110 % of control

Cc1onc(-c2ccccc2)c1NC(=O)OCc1ccc(-c2cc(C(F)(F)F)cc(C(F)(F)F)c2)o1
inactive: [3] 97 % of control | [4] 99 % of control | [5] 99 % of control

NC(=O)c1cc(Cl)nc2nc(Cl)nc(N)c12
inactive: [6] 105 % of control | [7] 104 % of control and 109 % of control | [8] 116 % of control and 117 % of control | [9] 116 % of control and 122 % of control

c1ccc2c(c1)[nH]c1nc3ccncc3nc12
inactive: [6] 90 % of control | [7] 95 % of control

C[C@]1(O)CC[C@H]2[C@@H]3CCC4=CC(=O)CC[C@]4(C)[C@@]3(F)[C@@H](O)C[C@@]21C
inactive: dose: 100.0 mg/kg/injection, schedule: Q04DX003 (ip), vehicle: Klucel (hydroxypropylcellulose) (HPC) 100 % of control | dose: 200.0 mg/kg/injection, schedule: Q04DX003 (ip), vehicle: Klucel (hydroxypropylcellulose) (HPC) 95 % of control | dose: 400.0 mg/kg/injection, schedule: Q04DX003 (ip), vehicle: Klucel (hydroxypropylcellulose) (HPC) 95 % of control

COC1(F)C2(Cl)C=C(c3ccccc3)C1(Cl)C(Cl)=C2Cl (configuration not stated)
inactive: dose: 100.0 mg/kg/injection, schedule: Q04DX002 (ip), vehicle: saline with Tween-80 101 % of control | dose: 200.0 mg/kg/injection, schedule: Q04DX002 (ip), vehicle: saline with Tween-80 111 % of control | dose: 400.0 mg/kg/injection, schedule: Q04DX002 (ip), vehicle: saline with Tween-80 100 % of control

CC(=O)Nc1cc(C)ccc1O
inactive: [7] 100 % of control | [8] 104 % of control | [9] 90 % of control

C1CCNCC1.O=C([CH-]C(=O)C(F)(F)F)c1cccs1.O=C([CH-]C(=O)C(F)(F)F)c1cccs1.O=C([CH-]C(=O)C(F)(F)F)c1cccs1.O=C([CH-]C(=O)C(F)(F)F)c1cccs1.[Eu+3]
inactive: dose: 100.0 mg/kg/injection, schedule: Q01DX009 (ip), vehicle: saline 122 % of control

CC1(C)N=C(N)N=C(N)N1c1cccc(OCCOc2cccc(NC(=O)CBr)c2)c1
inactive: dose: 5.0 mg/kg/injection, schedule: Q01DX009 (ip), vehicle: saline 90 % of control and 100 % of control | dose: 5.0 mg/kg/injection, schedule: Q04DX003 (ip), vehicle: saline 100 % of control | dose: 10.0 mg/kg/injection, schedule: Q01DX009 (ip), vehicle: saline 95 % of control and 100 % of control | dose: 10.0 mg/kg/injection, schedule: Q04DX003 (ip), vehicle: saline 100 % of control | dose: 13.0 mg/kg/injection, schedule: Q01DX009 (ip), vehicle: saline 104 % of control and 110 % of control | dose: 20.0 mg/kg/injection, schedule: Q04DX003 (ip), vehicle: saline 100 % of control | dose: 45.0 mg/kg/injection, schedule: Q01DX009 (ip), vehicle: saline 100 % of control

O=C(CBr)OCCCS(=O)(=O)O
inactive: dose: 50.0 mg/kg/injection, schedule: Q04DX003 (ip), vehicle: saline 95 % of control | dose: 100.0 mg/kg/injection, schedule: Q04DX003 (ip), vehicle: saline 104 % of control | dose: 200.0 mg/kg/injection, schedule: Q04DX003 (ip), vehicle: saline 100 % of control

O=C1NC(c2ccccc2)(c2ccccc2)C(=O)N1CCS
inactive: dose: 6.25 mg/kg/injection, schedule: Q01DX009 (ip), vehicle: saline 89 % of control and 122 % of control | dose: 12.5 mg/kg/injection, schedule: Q01DX009 (ip), vehicle: saline 104 % of control and 107 % of control | dose: 25.0 mg/kg/injection, schedule: Q01DX009 (ip), vehicle: saline 106 % of control and 116 % of control | dose: 25.0 mg/kg/injection, schedule: Q04DX003 (ip), vehicle: saline 98 % of control | dose: 50.0 mg/kg/injection, schedule: Q01DX009 (ip), vehicle: saline 95 % of control and 105 % of control

O=C(Oc1ccc([N+](=O)[O-])cc1)c1ccc2ccccc2n1
inactive: [4] 111 % of control | [7] 95 % of control | [5] 111 % of control | [8] 109 % of control | [10] 95 % of control | [9] 90 % of control

Cn1ncc(=O)c(Cl)c1S
inactive: [11] 97 % of control | [12] 93 % of control | [13] 99 % of control

COc1ccc(C2=NNc3n[nH]c(=S)n3N2)cc1OC
inactive: [7] 100 % of control | [8] 100 % of control | [9] 91 % of control

COC(=O)[C@H]1[C@H]2C[C@@H]3c4[nH]c5cc(OC)ccc5c4CCN3C[C@H]2C[C@@H](OC(=O)/C=C/c2cc(OC)c(OC)c(OC)c2)[C@@H]1OC
inactive: dose: 0.63 mg/kg/injection, schedule: Q01DX009 (ip), vehicle: saline with Tween-80 90 % of control | dose: 1.25 mg/kg/injection, schedule: Q01DX009 (ip), vehicle: saline with Tween-80 90 % of control | dose: 2.5 mg/kg/injection, schedule: Q01DX009 (ip), vehicle: saline with Tween-80 90 % of control

COc1ccc(C2=C(c3ccccc3)C(c3ccccc3)=C(c3ccc(OC)cc3)C2=O)cc1
inactive: [3] 103 % of control | [4] 89 % of control | [5] 99 % of control | [10] 94 % of control

Nc1ccc(S(=O)(=O)N/N=C/c2ccccc2Cl)cc1
inactive: [1] 96 % of control | [2] 96 % of control | [3] 92 % of control

COc1ccc2c(c1OC)C(=O)OC2(O)C1=NCCc2cc3c(cc21)OCO3 (configuration not stated)
inactive: [11] 111 % of control | [12] 98 % of control | [13] 109 % of control

CCCCc1ccc(N2C(N)=NC(N)=NC2(C)C)cc1
inactive: dose: 6.25 mg/kg/injection, schedule: Q01DX005 (ip), vehicle: Klucel (hydroxypropylcellulose) (HPC) 111 % of control | dose: 12.5 mg/kg/injection, schedule: Q01DX005 (ip), vehicle: Klucel (hydroxypropylcellulose) (HPC) 110 % of control

O=C(O)c1occ(Cl)c1Cl
inactive: dose: 0.78 mg/kg/injection, schedule: Q01DX009 (ip), vehicle: water 100 % of control | dose: 1.56 mg/kg/injection, schedule: Q01DX009 (ip), vehicle: water 98 % of control | dose: 3.12 mg/kg/injection, schedule: Q01DX009 (ip), vehicle: water 97 % of control | dose: 6.25 mg/kg/injection, schedule: Q01DX009 (ip), vehicle: water 97 % of control | dose: 12.5 mg/kg/injection, schedule: Q01DX009 (ip), vehicle: water 94 % of control | dose: 25.0 mg/kg/injection, schedule: Q01DX009 (ip), vehicle: water 94 % of control | dose: 50.0 mg/kg/injection, schedule: Q01DX009 (ip), vehicle: water 106 % of control | dose: 50.0 mg/kg/injection, schedule: Q04DX003 (ip), vehicle: water 96 % of control | dose: 100.0 mg/kg/injection, schedule: Q04DX003 (ip), vehicle: water 104 % of control | dose: 200.0 mg/kg/injection, schedule: Q04DX003 (ip), vehicle: water 119 % of control

CN(CCS)C(=N)N
inactive: dose: 3.13 mg/kg/injection, schedule: Q01DX009 (ip), vehicle: saline with Tween-80 112 % of control | dose: 6.25 mg/kg/injection, schedule: Q01DX009 (ip), vehicle: saline with Tween-80 99 % of control | [1] 111 % of control | [2] 104 % of control

COC(=O)C(CCCCNC(=O)OCc1ccccc1)NC(=O)C(CCCCNC(=O)OCc1ccccc1)NC(=O)OC(C)(C)C (configuration not stated)
inactive: [13] 90 % of control
